Values of other authors as cited in US20070122350A1, “Safe and effective methods of administering therapeutic agents” (Transave, Inc., priority 2005, published 2007).

Settings: OSHA

N.N.[Cl][Pt][Cl] [cisplatin, Cis-diamminedichloroplatinum(II)]
legal airborne permissible exposure limit (PEL) (averaged over an eight-hour work shift): 2·10^−3 mg/m^3
legal airborne permissible exposure limit (PEL), equivalent (per liter of air during 480 consecutive minutes): 2 ng/L
